“And” between values parts separate entries of the source, which are not always exact repeats. Equal entries are not always repeated.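 Compound exposure: 48 hours, 5 concentrations, 96-well plates. GI50 is the concentration that inhibits growth by half. The concentration for full growth arrest is given as TGI.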

The record followed here is PubChem BioAssay (NCI).

Among the test systems are A549 NSCLC; ACHN renal; BT-549 breast; K-562 leukemia; MDA-MB-231 breast; NCI/ADR-RES ovarian; OVCAR-3 ovarian; SK-MEL-28 melanoma; UACC-257 melanoma; CCRF-CEM leukemia.
Assay in all cases: NCI tumour cell line growth inhibition, 48 h

In the case of `CCc1ncc(CO)n1Cc1cccc2ccccc12`, the TGI in the test with A549 NSCLC, in the test on ACHN renal, in the test on BT-549 breast, in the test on K-562 leukemia, in the test on MDA-MB-231 breast and in the test on NCI/ADR-RES ovarian was over 100 µM throughout. Moreover, the TGI in the test with OVCAR-3 ovarian, with SK-MEL-28 melanoma and in the test with UACC-257 melanoma was over 100 µM in each case.
`CCOc1ccc2c(c1)C(=O)c1c-2n(CCCN=[N+]=[N-])c(=O)c2cc([N+](=O)[O-])ccc12`: the GI50 in the test with A549 NSCLC was 10.2 µM; in the test on ACHN renal, 2.02 µM; in the test with BT-549 breast, 13.1 µM; with CCRF-CEM leukemia, 0.442 µM; in the test on K-562 leukemia, 17.2 µM; in the test on MDA-MB-231 breast, 45 µM. The GI50 in the test on NCI/ADR-RES ovarian was 3.91 µM; in the test with OVCAR-3 ovarian it was 20 µM; in the test with SK-MEL-28 melanoma it was 51.7 µM; with UACC-257 melanoma it was 96.4 µM. For the same compound, the TGI in the test on A549 NSCLC was over 100 µM; in the test with ACHN renal it was 9.32 µM; in the test with BT-549 breast it was over 100 µM; with CCRF-CEM leukemia, 2.79 µM; in the test with K-562 leukemia it was over 100 µM; in the test with MDA-MB-231 breast, over 100 µM. Also, the TGI in the test with NCI/ADR-RES ovarian, in the test on OVCAR-3 ovarian, in the test on SK-MEL-28 melanoma and with UACC-257 melanoma was over 100 µM throughout.
Consider `CN1CCN(CCC=C2c3ccccc3Sc3ccc(S(=O)(=O)N(C)C)cc32)CC1`, for which the GI50 in the test on A549 NSCLC was 5.69 µM and 9.71 µM; in the test with ACHN renal, 5.27 µM and 10.2 µM; in the test on BT-549 breast, 8.06 µM and 13 µM; in the test with CCRF-CEM leukemia, 3.12 µM and 4.36 µM; in the test with K-562 leukemia it was 2.21 µM and 1.63 µM; with MDA-MB-231 breast, 1.82 µM and 4.4 µM. The GI50 with NCI/ADR-RES ovarian was 5.5 µM and 13.2 µM; in the test on OVCAR-3 ovarian, 3.84 µM and 6.44 µM; with SK-MEL-28 melanoma, 1.8 µM and 1.77 µM; in the test with UACC-257 melanoma, 2.02 µM and 1.8 µM. The TGI in the test on A549 NSCLC is > 100 µM and 31.5 µM; in the test with ACHN renal, 27.3 µM and 27.6 µM; in the test on BT-549 breast, 23 µM and 29.2 µM; in the test with CCRF-CEM leukemia, 20.1 µM and 23 µM; with K-562 leukemia, 4.72 µM; with MDA-MB-231 breast, 4.43 µM and 16.8 µM. In addition, the TGI in the test on NCI/ADR-RES ovarian was 26.5 µM and 37.5 µM; with OVCAR-3 ovarian, 16.3 µM and 22.7 µM; in the test with SK-MEL-28 melanoma it was 3.22 µM and 3.35 µM; with UACC-257 melanoma it was 3.73 µM and 4.03 µM.
`CC(C)C1=CC2=C(C(=O)C1=O)C13CCCC(C)(C)C1CC2OC3=O` (configuration not stated): the TGI in the test on A549 NSCLC is over 100 µM; with ACHN renal, 38.6 µM; in the test with BT-549 breast, 37.4 µM; in the test on CCRF-CEM leukemia it was 33.1 µM; in the test on K-562 leukemia it was 19.7 µM; in the test with MDA-MB-231 breast, 42.6 µM. The TGI was determined as 40.1 µM in the test on NCI/ADR-RES ovarian, 38.8 µM in the test with OVCAR-3 ovarian, 31.7 µM in the test with SK-MEL-28 melanoma and 71 µM in the test with UACC-257 melanoma.
Consider `CC1(C)C(CC(=O)O)CCCC1CC(=O)O` (configuration not stated), for which the TGI with A549 NSCLC, in the test on ACHN renal, with BT-549 breast, in the test on CCRF-CEM leukemia, with K-562 leukemia and in the test with MDA-MB-231 breast was over 100 µM each time. For the same compound, the TGI with NCI/ADR-RES ovarian, in the test on OVCAR-3 ovarian, with SK-MEL-28 melanoma and in the test on UACC-257 melanoma was over 100 µM throughout.
Consider `Cc1[nH]nc(C(=O)N/N=C/c2ccccc2Cl)c1N=NN(C)C`, for which the TGI in the test on A549 NSCLC was over 100 µM; with ACHN renal, over 100 µM; in the test on BT-549 breast, 12.8 µM; with CCRF-CEM leukemia, over 100 µM; in the test on K-562 leukemia it was over 100 µM; in the test with MDA-MB-231 breast it was over 100 µM. Further, the TGI is over 27.7 µM in the test with NCI/ADR-RES ovarian, over 100 µM in the test on OVCAR-3 ovarian, over 100 µM with SK-MEL-28 melanoma and over 100 µM with UACC-257 melanoma.
With `C[C@]12CC[C@H]3[C@@H](CC[C@]4(O)C[C@@H](O[C@@H]5O[C@H](CO)[C@@H](O[C@@H]6OC[C@@H](O)[C@H](O)[C@H]6O)[C@H](O)[C@H]5O)CC[C@]34C=O)[C@@]1(O)CC[C@@H]2C1=CC(=O)OC1`, the GI50 in the test on A549 NSCLC is 0.581 µM; with ACHN renal, 0.306 µM; with BT-549 breast, 1.06 µM; with CCRF-CEM leukemia it was 0.78 µM; in the test on K-562 leukemia, 1.57 µM; in the test on MDA-MB-231 breast it was 3.38 µM. For the same compound, the GI50 was 0.999 µM in the test on NCI/ADR-RES ovarian, 1.17 µM in the test on OVCAR-3 ovarian, 2.76 µM with SK-MEL-28 melanoma and 2.34 µM in the test with UACC-257 melanoma. For the same compound, the TGI with A549 NSCLC is 1.28 µM; in the test on ACHN renal it was 1.88 µM; in the test on BT-549 breast, 5.2 µM; with CCRF-CEM leukemia it was 5.24 µM; in the test on K-562 leukemia, 10.2 µM; in the test on MDA-MB-231 breast, 22 µM. Moreover, the TGI was 2.4 µM in the test with NCI/ADR-RES ovarian, 3.08 µM with OVCAR-3 ovarian, 15.6 µM in the test on SK-MEL-28 melanoma and 9.02 µM with UACC-257 melanoma.
With `Cc1c(Cl)c(C)c(Cl)c(O)c1Cl`, the TGI with A549 NSCLC was 71.9 µM; with ACHN renal, 72.5 µM; in the test with BT-549 breast, 81.7 µM; with CCRF-CEM leukemia it was over 100 µM; with K-562 leukemia, 46.3 µM; in the test on MDA-MB-231 breast it was over 100 µM. Further, the TGI with NCI/ADR-RES ovarian was 72.6 µM; in the test with OVCAR-3 ovarian, 66.5 µM; in the test with SK-MEL-28 melanoma, over 100 µM; in the test on UACC-257 melanoma, 87 µM.
Regarding `CCn1ncc(N=O)c1N`, the TGI in the test with A549 NSCLC, in the test on ACHN renal, in the test with CCRF-CEM leukemia, with K-562 leukemia, in the test on NCI/ADR-RES ovarian and with OVCAR-3 ovarian was over 100 µM throughout. The TGI in the test on SK-MEL-28 melanoma and in the test on UACC-257 melanoma was over 100 µM throughout.
Consider `CCN(CC)CC(O)c1cc(-c2ccc(Cl)cc2)nc2c(C)c(Cl)ccc12` (configuration not stated), for which the GI50 in the test on ACHN renal was 1.63 µM; in the test on BT-549 breast, 2.27 µM; in the test with CCRF-CEM leukemia it was 2.21 µM; in the test with K-562 leukemia, 1.66 µM; in the test on MDA-MB-231 breast, 1.47 µM; with NCI/ADR-RES ovarian it was 1.71 µM. Moreover, the values for the GI50 with OVCAR-3 ovarian, in the test on SK-MEL-28 melanoma and in the test with UACC-257 melanoma were 1.51 µM, 1.78 µM and 2.12 µM, respectively. The TGI is 3.03 µM with ACHN renal; 4.49 µM with BT-549 breast; 5.03 µM in the test on CCRF-CEM leukemia; 4.26 µM with K-562 leukemia; 3.03 µM with MDA-MB-231 breast; 3.16 µM with NCI/ADR-RES ovarian. Besides, the values for the TGI in the test on OVCAR-3 ovarian, in the test on SK-MEL-28 melanoma and with UACC-257 melanoma were 2.9 µM, 3.17 µM and 3.81 µM, respectively.
As to `CC#CC#C/C(=C/C=CC(=O)OC)SC`, the TGI with A549 NSCLC, in the test on BT-549 breast, in the test with K-562 leukemia, in the test on MDA-MB-231 breast, in the test with NCI/ADR-RES ovarian and in the test with SK-MEL-28 melanoma was over 100 µM each time. The compound further yielded a TGI in the test with UACC-257 melanoma of over 100 µM.
